Experimental data published in patent publication US20240360148A1 (SUVALENT THERAPEUTICS, INC., priority 2021, published 2024).

Target: SAE1 (Homo sapiens (Human), UniProt Q9UBE0+Q9UBT2)
Test: SAE High Throughput Biochemical Assay (HTRF), 15 min preincubation
Settings: read-out: 15 min preincubation HTRF IC50 (μM) Ave, SAE1 12.5 nM, ATP 100 μM
Procedure: Assay buffer was prepared [50 mM HEPES, pH 7.5, 0.1% BSA and 10 mM MgCl2] as was the Stop Buffer [100 mM HEPES, pH 7.5, 0.05% Tween20, and 410 mM KF]. The 2×Reaction Buffer [80 nM SUMO-GST, 80 nM UBC9-His, 200 μM ATP and diluted in Assay Buffer] and Antibody Reaction Mix [13.34 nM anti-GSTXL665, 1.66 nM anti-His EuK and Diluted in Stop Buffer] were also prepared. Compounds were dissolved at 200×in DMSO in a 384-well plate. Serial dilutions were performed in DMSO for each compound, and then each concentration was diluted another 50-fold in Assay Buffer, to 4× the final concentration. 2.5 μL of each concentration was transferred into its own well in a 384-well plate. SAE1 was then diluted to 4× in Assay Buffer, and 2.5 μL of 4×SAE1 was mixed into each compound-containing well. After incubating for 15 minutes at RT, 5 μL of 2×Reaction Buffer was mixed into every well. Then after another 45 minutes at RT, 10 μL of Antibody Reaction Mix was added and mixed into every well. This plate was then read on an HTRF-compatible plate reader after 2 hours at RT, and again after sitting at RT overnight. [Final Component Concentrations: SAE1: 12.5 nM; SUMO-GST: 40 nM; UBC9-His: 40 nM; Anti-GST-XL665: 6.67 nM; Anti-His-EuK: 0.83 nM; and ATP: 100 μM] Alternatively, the compounds are tested at a single concentration of 25 micromolar and the percent of control is measured.

Sequence of SAE1 (Q9UBE0 whole entry): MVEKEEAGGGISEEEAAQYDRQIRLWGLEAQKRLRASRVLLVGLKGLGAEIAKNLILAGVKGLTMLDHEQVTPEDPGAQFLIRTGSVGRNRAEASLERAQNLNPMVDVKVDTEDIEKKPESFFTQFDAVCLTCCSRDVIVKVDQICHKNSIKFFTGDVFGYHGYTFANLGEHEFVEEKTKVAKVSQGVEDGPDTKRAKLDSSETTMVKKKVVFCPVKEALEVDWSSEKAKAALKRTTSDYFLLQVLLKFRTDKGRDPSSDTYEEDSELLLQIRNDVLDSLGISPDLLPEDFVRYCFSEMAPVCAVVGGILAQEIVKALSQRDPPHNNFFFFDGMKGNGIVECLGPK
Sequence of SAE1 (Q9UBT2 whole entry): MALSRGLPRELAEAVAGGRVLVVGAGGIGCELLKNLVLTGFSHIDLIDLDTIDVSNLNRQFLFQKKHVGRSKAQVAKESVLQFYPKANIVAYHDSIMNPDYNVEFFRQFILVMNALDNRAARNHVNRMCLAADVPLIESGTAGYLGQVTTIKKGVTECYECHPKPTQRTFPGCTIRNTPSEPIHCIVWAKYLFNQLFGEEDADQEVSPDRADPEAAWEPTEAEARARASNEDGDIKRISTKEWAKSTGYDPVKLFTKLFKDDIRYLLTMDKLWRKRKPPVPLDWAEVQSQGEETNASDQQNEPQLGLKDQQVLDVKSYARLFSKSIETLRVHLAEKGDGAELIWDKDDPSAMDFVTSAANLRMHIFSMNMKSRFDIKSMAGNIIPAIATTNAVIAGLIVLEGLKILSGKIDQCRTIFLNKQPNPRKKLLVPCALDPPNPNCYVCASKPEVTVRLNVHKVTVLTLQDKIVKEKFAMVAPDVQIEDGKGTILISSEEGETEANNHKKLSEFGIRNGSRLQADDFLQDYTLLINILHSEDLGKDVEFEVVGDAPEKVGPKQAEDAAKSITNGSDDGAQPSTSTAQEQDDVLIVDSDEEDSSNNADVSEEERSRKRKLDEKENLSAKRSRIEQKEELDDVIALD

Row | Structure (SMILES) | IC50
1 | CCn1cc(-c2ccccc2[C@@H]2CN(C(=O)/C=C/[C@H](COC)NC)Cc3sc(C#N)cc32)c(C(F)(F)F)n1 [Example 86, (S)-4-(2-(1-Ethyl-3-(trifluoromethyl)-1 H-pyrazol-4-yl)phenyl)-6-((R, E)-5-methoxy-4-(methylamino)pent-2-enoyl)-4,5,6,7-tetrahydrothieno[2,3-c]pyridine-2-carbonitrile] | 9.1 µM
2 | CCn1cc(-c2ccccc2[C@@H]2CN(C(=O)/C=C/[C@@H](C)NC)Cc3sc(C#N)cc32)c(C(F)(F)F)n1 [Example 87, (S)-4-(2-(1-Ethyl-3-(trifluoromethyl)-1 H-pyrazol-4-yl)phenyl)-6-((R, E)-4-(methylamino)pent-2-enoyl)-4,5,6,7-tetrahydrothieno[2,3-c]pyridine-2-carbonitrile] | 18.2 µM
3 | CCn1cc(-c2c(F)cccc2[C@@H]2CN(C(=O)/C=C/[C@@H](C)NC)Cc3sc(C#N)cc32)c(C(F)(F)F)n1 [Example 88, (S)-4-(2-(1-Ethyl-3-(trifluoromethyl)-1H pyrazol-4-yl)-3-fluorophenyl)-6-((R,E)-4-(methylamino)pent-2-enoyl)-4,5,6,7-tetrahydrothieno[2,3-c]pyridine-2-carbonitrile] | 2.7 µM
4 | CCn1cc(-c2ccccc2[C@@H]2CN(C(=O)/C=C/CNC3(C)COC3)Cc3sc(C#N)cc32)c(C(F)(F)F)n1 [Example 95, (S, E)-4-(2-(1-Ethyl-3-(trifluoromethyl)-1 H-pyrazol-4-yl)phenyl)-6-(4-((3-methyloxetan-3-yl)amino)but-2-enoyl)-4,5,6,7-tetrahydrothieno[2,3-c]pyridine-2-carbonitrile] | 15.6 µM
5 | CCn1cc(-c2ccccc2[C@@H]2CN(C(=O)/C=C/CNC3(C)CCOC3)Cc3sc(C#N)cc32)c(C(F)(F)F)n1 (stereo partly drawn) [Example 97, (4S)-4-(2-(1-Ethyl-3-(trifluoromethyl)-1 H-pyrazol-4-yl)phenyl)-6-((E)-4-((3-methyltetrahydrofuran-3-yl)amino)but-2-enoyl)-4,5,6,7-tetrahydrothieno[2,3-c]pyridine-2-carbonitrile] | 2.76 µM
6 | CCn1cc(-c2ccccc2[C@@H]2CN(C(=O)/C=C/C3(N)CC3)Cc3sc(C#N)cc32)c(C(F)(F)F)n1 [Example 109, (S, E)-6-(3-(1-Aminocyclopropyl)acryloyl)-4-(2-(1-ethyl-3-(trifluoromethyl)-1 H-pyrazol-4-yl)phenyl)-4,5,6,7-tetrahydrothieno[2,3-c]pyridine-2-carbonitrile] | 26.5 µM
7 | CCn1cc(-c2ccccc2[C@@H]2CN(C(=O)C#CC3(N)CCC3)Cc3sc(C#N)cc32)c(C(F)(F)F)n1 [Example 137, (S)-6-(3-(1-Aminocyclobutyl)propioloyl)-4-(2-(1-ethyl-3-(trifluoromethyl)-1 H pyrazol-4-yl)phenyl)-4,5,6,7-tetrahydrothieno[2,3-c]pyridine-2-carbonitrile] | 0.36 µM
8 | CCn1cc(-c2ccccc2[C@@H]2CN(C(=O)C#CCN3CCN(C)CC3)Cc3sc(C#N)cc32)c(C(F)(F)F)n1 [Example 143, (S)-4-(2-(1-Ethyl-3-(trifluoromethyl)-1 H pyrazol-4-yl)phenyl)-6-(4-(4-methylpiperazin-1-yl)but-2-ynoyl)-4,5,6,7-tetrahydrothieno[2,3-c]pyridine-2-carbonitrile] | 2.18 µM
9 | CCn1cc(-c2ccccc2[C@@H]2CN(C(=O)C#CC3CCCNC3)Cc3sc(C#N)cc32)c(C(F)(F)F)n1 (stereo partly drawn) [Example 145, (4S)-4-(2-(1-Ethyl-3-(trifluoromethyl)-1 H-pyrazol-4-yl)phenyl)-6-(3-(piperidin-3-yl)propioloyl)-4,5,6,7-tetrahydrothieno[2,3-c]pyridine-2-carbonitrile] | 5.62 µM
10 | CN(C)C/C=C/C(=O)N1Cc2sc(C#N)cc2C(c2ccccc2-c2c[nH]nc2C(F)(F)F)C1 (stereo not shown) [Example 152, (E)-6-(4-(Dimethylamino)but-2-enoyl)-4-(2-(3-(trifluoromethyl)-1H-pyrazol-4-yl)phenyl)-4,5,6,7-tetrahydrothieno[2,3-c]pyridine-2-carbonitrile] | 10.4 µM
11 | CN(C)C/C=C/C(=O)N1Cc2sc(C#N)cc2[C@H](c2ccccc2-c2c[nH]nc2C(F)(F)F)C1 [Example 153, (S, E)-6-(4-(Dimethylamino)but-2-enoyl)-4-(2-(3-(trifluoromethyl)-1 H-pyrazol-4-yl)phenyl)-4,5,6,7-tetrahydrothieno[2,3-c]pyridine-2-carbonitrile] | 9.68 µM
12 | CN(C)C/C=C/C(=O)N1Cc2sc(C#N)cc2C(c2ccccc2-c2cn(CCC#N)nc2C(F)(F)F)C1 (stereo not shown) [Example 154, (E)-4-(2-(1-(2-Cyanoethyl)-3-(trifluoromethyl)-1H pyrazol-4-yl)phenyl)-6-(4-(dimechylamino)but-2-enoyl)-4,5,6,7-tetrahydrothieno[2,3-c]pyridine-2-carbonitrile] | 7.34 µM
13 | CN(C)C/C=C/C(=O)N1Cc2sc(C#N)cc2[C@H](c2ccccc2-c2cn(-c3ccncc3F)nc2C(F)(F)F)C1 [Example 157, (S,E)-6-(4-(Dimethylamino)but-2-enoyl)-4-(2-(1-(3-fluoropyridin-4-yl)-3-(trifluoromethyl)-1H pyrazol-4-yl)phenyl)-4,5,6,7-tetrahydrothieno[2,3-c]pyridine-2-carbonitrile] | 18.6 µM
14 | CN(C)C/C=C/C(=O)N1Cc2sc(C#N)cc2[C@H](c2ccccc2-c2cn(-c3ncccc3F)nc2C(F)(F)F)C1 [Example 158, (S,E)-6-(4-(Dimethylamino)but-2-enoyl)-4-(2-(1-(3-fluoropyridin-2-yl)-3-(trifluoromethyl)-1H pyrazol-4-yl)phenyl)-4,5,6,7-tetrahydrothieno[2,3-c]pyridine-2-carbonitrile] | 6.37 µM
15 | CN(C)C/C=C/C(=O)N1Cc2sc(C#N)cc2[C@H](c2ccccc2-c2cn(-c3ccnc(N)c3)nc2C(F)(F)F)C1 [Example 160, (S, E)-4-(2-(1-(2-Aminopyridin-4-yl)-3-(trifluoromethyl)-1 H-pyrazol-4-yl)phenyl)-6-(4-(dimethylamino)but-2-enoyl)-4,5,6,7-tetrahydrothieno[2,3-c]pyridine-2-carbonitrile] | 24.4 µM
16 | CNC(=O)C(C)n1cc(-c2ccccc2[C@@H]2CN(C(=O)/C=C/CN(C)C)Cc3sc(C#N)cc32)c(C(F)(F)F)n1 (stereo partly drawn) [Example 161, 2-(4-(2-((S)-2-Cyano-6-((E)-4-(dimethylamino)but-2-enoyl)-4,5,6,7-tetrahydrothieno[2,3-c]pyridin-4-yl)phenyl)-3-(trifluoromethyl)-1 H-pyrazol-1-yl)-N-methylpropanamide] | 15.8 µM
17 | CN(C)C/C=C/C(=O)N1Cc2sc(C#N)cc2[C@H](c2ccccc2-c2cn(CC(N)=O)nc2C(F)(F)F)C1 [Example 162, (S, E)-2-(4-(2-(2-Cyano-6-(4-(dimethylamino)but-2-enoyl)-4,5,6,7-tetrahydrothieno[2,3-c]pyridin-4-yl)phenyl)-3-(trifluoromethyl)-1 H-pyrazol-1-yl)acetamide] | 11.6 µM
18 | CC(C(=O)N(C)C)n1cc(-c2ccccc2[C@@H]2CN(C(=O)/C=C/CN(C)C)Cc3sc(C#N)cc32)c(C(F)(F)F)n1 (stereo partly drawn) [Example 163, 2-(4-(2-((S)-2-Cyano-6-((E)-4-(dimethylamino)but-2-enoyl)-4,5,6,7-tetrahydrothieno[2,3-c]pyridin-4-yl)phenyl)-3-(trifluoromethyl)-1 H-pyrazol-1-yl)-N, N-dimethylpropanamide] | 8.68 µM
19 | CC(C(=O)N(C)C)n1cc(-c2ccccc2[C@@H]2CN(C(=O)/C=C/CN(C)C)Cc3sc(C#N)cc32)c(C(F)(F)F)n1 (stereo partly drawn) [Example 164, 2-(4-(2-((S)-2-Cyano-6-((E)-4-(dimethylamino)but-2-enoyl)-4,5,6,7-tetrahydrothieno[2,3-c]pyridin-4-yl)phenyl)-3-(trifluoromethyl)-1 H-pyrazol-1-yl)-N, N-dimethylpropanamide] | 10.9 µM
20 | CN(C)C/C=C/C(=O)N1Cc2sc(C#N)cc2[C@H](c2ccccc2-c2cn(Cc3ncno3)nc2C(F)(F)F)C1 [Example 166, (S,E)-4-(2-(1-((1,2,4-Oxadiazol-5-yl)methyl)-3-(trifluoromethyl)-1H pyrazol-4-yl)phenyl)-6-(4-(dimethylamino)but-2-enoyl)-4,5,6,7-tetrahydrothieno[2,3-c]pyridine-2-carbonitrile] | 19.9 µM
21 | CN(C)C/C=C/C(=O)N1Cc2sc(C#N)cc2[C@H](c2ccccc2-c2cn(S(C)(=O)=O)nc2C(F)(F)F)C1 [Example 168, (S, E)-6-(4-(Dimethylamino)but-2-enoyl)-4-(2-(1-(methylsulfonyl)-3-(trifluoromethyl)-1 H pyrazol-4-yl)phenyl)-4,5,6,7-tetrahydrothieno[2,3-c]pyridine-2-carbonitrile] | 18.8 µM
22 | CCOC(=O)Cn1cc(-c2ccccc2[C@@H]2CN(C(=O)/C=C/CN(C)C)Cc3sc(C#N)cc32)c(C(F)(F)F)n1 [Example 169, Ethyl (S,E)-2-(4-(2-(2-cyano-6-(4-(dimethylamino)but-2-enoyl)-4,5,6,7-tetrahydrothieno[2,3-c]pyridin-4-yl)phenyl)-3-(trifluoromethyl)-1 H-pyrazol-1-yl)acetate] | 14.5 µM
